How the values were obtained:
DIGSA = test: Example I: postemergence foliar-applied weed control, greenhouse; assay type: in vivo, Digitaria sanguinalis (L.) Scop. (large crabgrass); settings: 20 DAA
From the text: (§1) Seeds or nutlets of the desired test plant species were planted in a soil matrix prepared by mixing a loam or sandy loam soil (e.g., 28.6 percent silt, 18.8 percent clay, and 52.6 percent sand, with a pH of about 5.8 and an organic matter content of about 1.8 percent) and calcareous grit in an 80 to 20 ratio. The soil matrix was contained in plastic pots with a volume of 1 quart and a surface area of 83.6 square centimeters (cm^2). When required to ensure good germination and healthy plants, a fungicide treatment and/or other chemical or physical treatment was applied. The plants were grown for 8-22 days in a greenhouse with an approximate 14 hr photoperiod which was maintained at about 29° C. during the day and 26° C. during the night. Nutrients (Peters Excel® 15-5-15 5-Ca 2-Mg and iron chelate) were applied in the irrigation solution as needed and water was added on a regular basis. Supplemental lighting was provided with overhead metal halide 1000-Watt lamps as necessary. The plants were employed for testing when they reached the first through fourth true leaf stage.
(§2) Treatments consisted of the acid or esters of 4-amino-3-chloro-5-fluoro-6-(4-chloro-2-fluoro-3-methoxy-phenyl)pyridine-2-carboxylic acid (Compound A), each formulated as an SC (suspension concentrate), and various herbicidal components alone and in combination. Forms of compound A were applied on an acid equivalent basis.
(§3) Other herbicidal components were applied on an active ingredient basis and included very long chain fatty acid (VLCFA) synthesis-inhibiting and fatty acid/lipid synthesis-inhibiting herbicides acetochlor (technical grade material), acetochlor+dichlormid formulated as Topnotch®, pretilachlor (technical grade material), butachlor formulated as Butachlor EC, fentrazamide formulated as Fentrazamide EC, thiobencarb formulated as Bolero® 8EC, cafenstrole formulated as Himeadow® WP or Lapost® Flowable, benfuresate formulated as Full Shot®, dimethenamid-P formulated as Outlook®, indanofan (technical grade material), flufenacet formulated as Define® DF, mefenacet (technical grade material), S-metolachlor formulated as Dual® II Magnum, pethoxamid formulated as Successor® 600, and pyroxasulfone (technical grade material).
(§4) Treatment requirements were calculated based upon the rates being tested, the concentration of active ingredient or acid equivalent in the formulation, and a 12 mL application volume at a rate of 187 L/ha.
(§5) For treatments comprised of formulated compounds, measured amounts of compounds were placed individually in 25 mL glass vials and diluted in a volume of 1.25% (v/v) Agri-Dex® crop oil concentrated to obtain 12× stock solutions. […] Application solutions were prepared by adding an appropriate amount of each stock solution (e.g., 1 mL) and diluted to the appropriate final concentrations with the addition of 10 mL of an aqueous mixture of 1.25% (v/v) crop oil concentrate so that the final spray solutions contained 1.25+/−0.05% (v/v) crop oil concentrate.
(§6) For treatments comprised of technical compounds, weighed amounts can be placed individually in 25 mL glass vials and dissolved in a volume of 97:3 v/v acetone/DMSO to obtain 12× stock solutions. […] Application solutions can be prepared by adding an appropriate amount of each stock solution (e.g., 1 mL) and diluted to the appropriate final concentrations with the addition of 10 mL of an aqueous mixture of 1.5% (v/v) crop oil concentrate so that the final spray solutions contain 1.25% (v/v) crop oil concentrate. When technical materials are used, the concentrated stock solutions can be added to the spray solutions so that the final acetone and DMSO concentrations of the application solutions are […], respectively. […]

ECHOR = test: Example II: in-water applied weed control, transplanted paddy rice, greenhouse; assay type: in vivo, Echinochloa oryzoides (Ard.) Fritsch (early watergrass); settings: for Visual Weed Control ECHOR Obs: 19 DAA
Method: (§7) Weed seeds or nutlets of the desired test plant species were planted in puddled soil (mud) prepared by mixing a shredded, non-sterilized mineral soil (50.5 percent silt, 25.5 percent clay, and 24 percent sand, with a pH of about 7.6 and an organic matter content of about 2.9 percent) and water at a 1:1 volumetric ratio. The prepared mud was dispensed in 365 mL aliquots into 16-ounce (oz.) non-perforated plastic pots with a surface area of 86.59 square centimeters (cm^2) leaving a headspace of 3 centimeters (cm) in each pot. Mud was allowed to dry overnight prior to planting or transplanting. Rice seeds were planted in Sun Gro MetroMix® 306 planting mixture, which typically has a pH of 6.0 to 6.8 and an organic matter content of about 30 percent, in plastic plug trays. Seedlings at the second or third leaf stage of growth were transplanted into 840 mL of mud contained in 32-oz. non-perforated plastic pots with a surface area of 86.59 cm^2 4 days prior to herbicide application. The paddy was created by filling the headspace of the pots with 2.5 to 3 cm of water. When required to ensure good germination and healthy plants, a fungicide treatment and/or other chemical or physical treatment was applied. The plants were grown for 4-22 days in a greenhouse with an approximate 14 hr photoperiod which was maintained at about 29′C during the day and 26° C. during the night. Nutrients were added as Osmocote® (19:6:12, N:P:K+ minor nutrients) at 2 g per 16-oz. pot and 4 g per 32-oz. pot. Water was added on a regular basis to maintain the paddy flood, and supplemental lighting was provided with overhead metal halide 1000-Watt lamps as necessary. The plants were employed for testing when they reached the first through fourth true leaf stage.
as §2, with “(compound A)” for “(Compound A),”, “concentrate)” for “concentrate),”
(§8) The herbicidal components were applied on an active ingredient basis and included very long chain fatty acid (VLCFA) synthesis-inhibiting and fatty acid/lipid synthesis-inhibiting herbicides acetochlor (technical grade material), acetochlor+dichlormid formulateded as Topnotch®, pretilachlor (technical grade material), butachlor formulated as Butachlor EC, fentrazamide formulated as Fentrazamide EC, thiobencarb formulated as Bolero® 8EC, cafenstrole formulated as Himeadow® WP or Lapost® Flowable, benfuresate formulated as Full Shot®, anilofos (technical grade material), mefenacet (technical grade material), molinate (technical grade material), and thenylchlor (technical grade material).
(§9) Treatment requirements for each compound or herbicidal component were calculated based upon the rates being tested, the concentration of active ingredient or acid equivalent in the formulation, an application volume of 2 mL per component per pot, and an application area of 86.59 cm^2 per pot.
(§10) For formulated compounds, a measured amount was placed in an individual 100 or 200 mL glass vial and was dissolved in a volume of 1.25% (v/v) Agri-Dex® crop oil concentrate to obtain application solutions.
(§11) For technical grade compounds, a weighed amount was placed in an individual 100 to 200 mL glass vial and was dissolved in a volume of acetone to obtain concentrated stock solutions. […] The concentrated stock solutions obtained were diluted with an equivalent volume of an aqueous mixture containing 2.5% (v/v) crop oil concentrate so that the final application solutions contained 1.25% (v/v) crop oil concentrate.
(§12) Applications were made by injecting with a pipetter appropriate amounts of the application solutions, individually and sequentially, into the aqueous layer of the paddy. Control plants were treated in the same manner with the solvent blank. […]

FIMMI = test: as above; assay type: in vivo, Fimbristylis miliacea (L.) Vahl (globe fringerush); settings: for Visual Weed Control FIMMI Obs: 19 DAA
Method: as §7
as §2, with “(compound A)” for “(Compound A),”, “concentrate)” for “concentrate),”
as §8, §9, §10, §11, §12

BRAPP = test: Example I: postemergence foliar-applied weed control, direct seeded rice weeds, greenhouse; assay type: in vivo; settings: 20 DAA
From the text: as §1, §2, §3, §4, §5, §6

ECHCG [1] = test: Example II: in-water applied weed control, transplanted paddy rice, greenhouse; assay type: in vivo, Echinochloa crus-galli (L.) Beauv. (barnyardgrass); settings: 100 gai/ha
Method: as §7
as §2, with “(compound A)” for “(Compound A),”, “concentrate)” for “concentrate),”
as §8, §9, §10, §11, §12

CYPRO = test: as above; assay type: in vivo, Cyperus rotundus L. (purple nutsedge); settings: for Visual Weed Control CYPRO Obs: 19 DAA
Method: as §7
as §2, with “(compound A)” for “(Compound A),”, “concentrate)” for “concentrate),”
as §8, §9, §10, §11, §12

ECHCG [2] = test: Example I: postemergence foliar-applied weed control, greenhouse; assay type: in vivo, Echinochloa crus-galli (L.) Beauv. (barnyardgrass); settings: 20 DAA
From the text: as §1, §2, §3, §4, §5, §6

IPOHE = test: Example IV: pre-emergence soil-applied weed control, greenhouse; assay type: in vivo, Ipomoea hederacea Jacq. (ivyleaf morningglory); settings: 27 DAA
From the text: Seeds or nutlets of the desired test plant species were planted in a soil matrix prepared by mixing a loam soil (32 percent silt, 23 percent clay, and 45 percent sand, with a pH of about 6.5 and an organic matter content of about 1.9 percent) and calcareous grit in an 80 to 20 ratio. The soil matrix was contained in plastic pots with a volume of 1 quart and a surface area of 83.6 square centimeters (cm^2).
as §2, with “benzyl ester” for “acid or esters”, “(compound A)” for “(Compound A), each”, “concentrate)” for “concentrate),”
Other herbicidal components were applied on an active ingredient basis and included very long chain fatty acid (VLCFA) synthesis-inhibiting and fatty acid/lipid synthesis-inhibiting herbicides alachlor (technical grade material), dimethenamid-P formulated as Outlook®, and S-metolachlor formulated as Dual® II Magnum.
as §4
as §5, with “oil concentrate (COC)” for “oil concentrated”, “(v/v) COC” for “(v/v) crop oil concentrate”, “contained 1.25%” for “contained 1.25+/−0.05%”, “(v/v) COC.” for “(v/v) crop oil concentrate.”
For treatments comprised of technical compounds, weighed amounts can be placed individually in 25 mL glass vials and dissolved in a volume of 97:3 (v/v) acetone/DMSO to obtain 12× stock solutions. […] Application solutions can be prepared by adding an appropriate amount of each stock solution (e.g., 1 mL) and diluted to the appropriate final concentrations with the addition of 10 mL of an aqueous mixture of 1.5% (v/v) COC so that the final spray solutions contain 1.25% (v/v) COC. When technical materials are used, the concentrated stock solutions can be added to the spray solutions so that the final acetone and DMSO concentrations of the application solutions are 16.2% and 0.5%, respectively.
For treatments comprised of formulated and technical compounds, weighed amounts of the technical materials were placed individually in 25 mL glass vials and dissolved in a volume of 97:3 (v/v) acetone/DMSO to obtain 12× stock solutions, and measured amounts of the formulated compounds were placed individually in 25 mL glass vials and diluted in a volume of 1.5% (v/v) COC or water to obtain 12× stock solutions. […] Application solutions were prepared by adding an appropriate amount of each stock solution (e.g., 1 mL) and diluted to the appropriate final concentrations with the addition of an appropriate amount of an aqueous mixture of 1.5% (v/v) COC so that the final spray solutions contained 1.25% (v/v) COC. As required, additional water and/or 97:3 (v/v) acetone/DMSO was added to individual application solutions so that the final acetone and DMSO concentrations of the application solutions being compared were 8.1% and 0.25%, respectively.
All stock solutions and applications solutions were visually inspected for compound compatibility prior to application. Spray solutions were applied to the soil with an overhead Mandel track sprayer equipped with a 8002E nozzles calibrated to deliver 187 L/ha over an application area of 0.503 m^2 at a spray height of 18 inches (46 cm) above average pot height. Control pots were sprayed in the same manner with the solvent blank.
The treated and control pots were placed in a greenhouse and top watered as needed. […]

LEFCH = test: Example I: postemergence foliar-applied weed control, greenhouse; assay type: in vivo, Leptochloa chinensis (L.) Nees (Chinese sprangletop); settings: 20 DAA
From the text: as §1, §2, §3, §4, §5, §6

ECHCO = test: as above; assay type: in vivo, Echinochloa colona (L.) Link (junglerice); settings: 20 DAA
From the text: as §1, §2, §3, §4, §5, §6

CCOCN(C(=O)CCl)c1c(C)cccc1CC [Acetochlor, 2-chloro-N-(ethoxymethyl)-N-(2-ethyl-6-methylphenyl)acetamide]
Visual Weed Control Obs (DIGSA; 100 gai/ha): 20% | Visual Weed Control Obs (DIGSA; 200 gai/ha): 20% | Visual Weed Control (%) - 20 DAA ECHOR Obs (ECHOR; 100 gai/ha): 80% | Visual Weed Control (%) - 20 DAA FIMMI Obs (FIMMI; 100 gai/ha): 80% | Visual Weed Control (%) - 20 DAA FIMMI Obs (FIMMI; 200 gai/ha): 20% | Visual Weed Control Obs (BRAPP; 100 gai/ha): 20% | Visual Weed Control Obs (BRAPP; 200 gai/ha): 30% | Visual Weed Control (%) - 22 DAA ECHCG Obs (ECHCG [1]): 65% | Visual Weed Control (%) - 20 DAA CYPRO Obs (CYPRO; 100 gai/ha): 20% | Visual Weed Control (%) - 20 DAA CYPRO Obs (CYPRO; 200 gai/ha): 75% | Visual Weed Control Obs (ECHCG [2]; 50 gai/ha): 0% | Visual Weed Control Obs (ECHCG [2]; 100 gai/ha): 10%

CCc1cccc(CC)c1N(COC)C(=O)CCl [Alachlor, 2-chloro-N-(2,6-diethylphenyl)-N-(methoxymethyl)acetamide]
Visual Weed Control IPOHE Obs (IPOHE; 1240 gai/ha): 5% | Visual Weed Control IPOHE Obs (IPOHE; 2480 gai/ha): 13%

CCN(C(=O)n1nnn(-c2ccccc2Cl)c1=O)C1CCCCC1 [Fentrazamide, 4-(2-chlorophenyl)-N-cyclohexyl-N-ethyl-4,5-dihydro-5-oxo-1H-tetrazole-1-carboxamide]
Visual Weed Control Obs (LEFCH; 33.75 gai/ha): 0% | Visual Weed Control Obs (LEFCH; 67.5 gai/ha): 0% | Visual Weed Control Obs (DIGSA; 33.75 gai/ha): 0% | Visual Weed Control Obs (DIGSA; 67.5 gai/ha): 30% | Visual Weed Control (%) - 21 DAA ECHOR Obs (ECHOR; 50 gai/ha): 50% | Visual Weed Control Obs (BRAPP; 16.88 gai/ha): 0% | Visual Weed Control Obs (BRAPP; 33.75 gai/ha): 0% | Visual Weed Control Obs (BRAPP; 67.5 gai/ha): 55% | Visual Weed Control Obs (ECHCO; 16.88 gai/ha): 0% | Visual Weed Control Obs (ECHCO; 33.75 gai/ha): 15% | Visual Weed Control Obs (ECHCO; 67.5 gai/ha): 10% | Visual Weed Control Obs (ECHCG [2]; 16.88 gai/ha): 0% | Visual Weed Control Obs (ECHCG [2]; 33.75 gai/ha): 0% | Visual Weed Control Obs (ECHCG [2]; 67.5 gai/ha): 20% | Visual Weed Control Obs (ECHCG [2]; 75 gai/ha): 0% | Visual Weed Control Obs (ECHCG [2]; 150 gai/ha): 5% | Visual Weed Control Obs (ECHCG [2]; 300 gai/ha): 13%

S-[2-[(4-chlorophenyl)(1-methylethyl)amino]-2-oxoethyl]O,O-dimethyl phosphorodithioate [Anilofos]
Visual Weed Control ECHOR Obs (ECHOR; 100 gai/ha): 40% | Visual Weed Control ECHOR Obs (ECHOR; 200 gai/ha): 80% | Visual Weed Control FIMMI Obs (FIMMI; 100 gai/ha): 0% | Visual Weed Control FIMMI Obs (FIMMI; 200 gai/ha): 0% | Visual Weed Control FIMMI Obs (FIMMI; 400 gai/ha): 10% | Visual Weed Control ECHCG Obs (ECHCG [1]; 19 DAA): 20% | Visual Weed Control CYPRO Obs (CYPRO; 100 gai/ha): 0% | Visual Weed Control CYPRO Obs (CYPRO; 200 gai/ha): 0% | Visual Weed Control CYPRO Obs (CYPRO; 400 gai/ha): 0%
